This note sets out measurements from patent US11572590B2, “Methods for evaluating tumor cell spheroids using 3D microfluidic cell culture device” (Dana-Farber Cancer Institute, Inc., priority 2017, dated 2023).

Read-outs that look alike come from different tables or passages of the source.

By inhibition is commonly meant the change of the read-out against control, counted positive when it falls.

What all share (assay): SelectScreen Kinase Profiling, single point inhibition and IC50 for off-target kinases
Assay type in all cases: biochemical

Assay [1] addresses off-target kinases (Homo sapiens, UniProt O75716). The note with it: STK16 (PKL12), LanthaScreen Binding.
Assay [2] concerns the target off-target kinases (Homo sapiens, UniProt P00533, DEL746-750). The following applies: EGFR (ErbB1) d746-750; mutant y; LanthaScreen Binding. (TR-FRET usually uses a lanthanide donor and a delayed reading to cut background.)
For assay [3], the target named is off-target kinases (Homo sapiens, UniProt P17252). The following applies: PRKCA (PKC alpha), ZLYTE, ATP Km app.
The target in assay [4] is T1, off-target kinases (Homo sapiens, UniProt P51955).
T1 sequence (P51955 1-445): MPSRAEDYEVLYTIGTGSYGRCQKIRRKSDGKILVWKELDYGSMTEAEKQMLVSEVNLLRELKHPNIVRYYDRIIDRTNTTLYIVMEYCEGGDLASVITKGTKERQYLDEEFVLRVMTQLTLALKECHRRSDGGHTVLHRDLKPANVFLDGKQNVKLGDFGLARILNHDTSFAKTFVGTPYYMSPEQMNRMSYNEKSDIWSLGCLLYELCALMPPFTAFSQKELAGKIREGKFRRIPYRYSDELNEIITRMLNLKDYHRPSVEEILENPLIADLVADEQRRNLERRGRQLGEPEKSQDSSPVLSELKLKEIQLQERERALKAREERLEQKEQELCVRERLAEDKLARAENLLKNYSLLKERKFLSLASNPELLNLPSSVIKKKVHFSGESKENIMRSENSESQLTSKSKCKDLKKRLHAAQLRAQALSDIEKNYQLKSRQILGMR
The note with it: NEK2, ZLYTE, ATP Km app.

Assay [5] deals with T2, off-target kinases (Homo sapiens, UniProt Q13043).
T2 sequence (Q13043 1-487): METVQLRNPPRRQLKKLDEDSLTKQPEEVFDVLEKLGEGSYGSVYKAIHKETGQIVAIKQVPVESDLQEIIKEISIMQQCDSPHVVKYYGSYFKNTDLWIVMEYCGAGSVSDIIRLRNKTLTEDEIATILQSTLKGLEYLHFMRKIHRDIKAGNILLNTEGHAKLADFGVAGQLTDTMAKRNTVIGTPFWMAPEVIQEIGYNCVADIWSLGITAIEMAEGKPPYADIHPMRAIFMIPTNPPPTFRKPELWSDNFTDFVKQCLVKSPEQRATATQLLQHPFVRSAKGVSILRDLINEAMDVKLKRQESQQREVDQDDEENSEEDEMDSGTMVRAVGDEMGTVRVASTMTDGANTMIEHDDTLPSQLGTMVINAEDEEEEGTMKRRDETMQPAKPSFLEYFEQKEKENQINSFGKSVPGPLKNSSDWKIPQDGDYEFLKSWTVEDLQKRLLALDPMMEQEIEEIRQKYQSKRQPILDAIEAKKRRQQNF

In assay [6] the target is off-target kinases (Homo sapiens, UniProt Q14289). The note with it: PTK2B (FAK2), ZLYTE, ATP Km app.
Chain of off-target kinases (Homo sapiens, UniProt Q14289) (Q14289 whole entry): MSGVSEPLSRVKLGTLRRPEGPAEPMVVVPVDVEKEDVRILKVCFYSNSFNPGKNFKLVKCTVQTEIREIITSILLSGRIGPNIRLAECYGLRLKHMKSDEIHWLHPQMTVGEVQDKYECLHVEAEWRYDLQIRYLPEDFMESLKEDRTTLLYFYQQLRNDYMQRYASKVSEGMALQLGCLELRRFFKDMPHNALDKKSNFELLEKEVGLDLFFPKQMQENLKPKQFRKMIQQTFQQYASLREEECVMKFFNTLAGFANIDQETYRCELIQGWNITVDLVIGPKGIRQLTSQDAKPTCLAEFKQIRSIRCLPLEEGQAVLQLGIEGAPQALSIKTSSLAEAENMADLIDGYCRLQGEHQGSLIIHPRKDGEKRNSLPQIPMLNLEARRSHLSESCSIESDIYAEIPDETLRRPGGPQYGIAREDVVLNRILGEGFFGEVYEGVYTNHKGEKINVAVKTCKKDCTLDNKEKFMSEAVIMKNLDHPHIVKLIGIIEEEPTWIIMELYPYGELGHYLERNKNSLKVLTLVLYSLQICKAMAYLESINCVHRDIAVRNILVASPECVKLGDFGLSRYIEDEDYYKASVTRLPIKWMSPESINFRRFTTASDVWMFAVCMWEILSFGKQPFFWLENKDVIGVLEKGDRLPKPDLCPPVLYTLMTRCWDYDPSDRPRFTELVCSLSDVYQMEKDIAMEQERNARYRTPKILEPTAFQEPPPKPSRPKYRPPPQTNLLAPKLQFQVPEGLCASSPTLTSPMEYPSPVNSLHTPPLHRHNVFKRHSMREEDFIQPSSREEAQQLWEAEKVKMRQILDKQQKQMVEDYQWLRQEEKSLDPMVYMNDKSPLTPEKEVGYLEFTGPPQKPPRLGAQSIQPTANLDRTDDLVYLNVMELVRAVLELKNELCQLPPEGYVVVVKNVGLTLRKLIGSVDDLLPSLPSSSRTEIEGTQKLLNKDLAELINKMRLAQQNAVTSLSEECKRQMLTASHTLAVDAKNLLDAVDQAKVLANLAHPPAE
In assay [7] the target is off-target kinases (Homo sapiens, UniProt Q96RR4). The note with it: CAMKK2 (CaMKK beta), LanthaScreen Binding.
Chain of off-target kinases (Homo sapiens, UniProt Q96RR4) (Q96RR4 whole entry): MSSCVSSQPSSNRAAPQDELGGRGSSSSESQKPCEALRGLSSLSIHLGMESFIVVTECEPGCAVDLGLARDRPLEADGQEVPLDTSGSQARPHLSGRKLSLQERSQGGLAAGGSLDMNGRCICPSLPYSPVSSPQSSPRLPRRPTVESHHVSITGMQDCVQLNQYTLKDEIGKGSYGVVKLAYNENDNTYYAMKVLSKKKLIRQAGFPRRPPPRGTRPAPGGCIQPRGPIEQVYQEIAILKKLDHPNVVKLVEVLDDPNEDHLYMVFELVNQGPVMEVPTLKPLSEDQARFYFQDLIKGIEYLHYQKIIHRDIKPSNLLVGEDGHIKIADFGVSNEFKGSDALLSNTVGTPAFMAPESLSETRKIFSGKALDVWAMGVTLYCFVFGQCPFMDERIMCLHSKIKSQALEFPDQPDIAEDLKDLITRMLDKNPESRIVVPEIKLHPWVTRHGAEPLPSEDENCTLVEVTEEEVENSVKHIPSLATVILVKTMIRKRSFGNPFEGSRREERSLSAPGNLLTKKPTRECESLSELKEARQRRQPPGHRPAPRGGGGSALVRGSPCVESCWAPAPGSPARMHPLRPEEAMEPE
Assay [8] deals with off-target kinases (Homo sapiens, UniProt Q9Y2K2). The following applies: SIK3, LanthaScreen Binding.
Chain of off-target kinases (Homo sapiens, UniProt Q9Y2K2) (Q9Y2K2 whole entry): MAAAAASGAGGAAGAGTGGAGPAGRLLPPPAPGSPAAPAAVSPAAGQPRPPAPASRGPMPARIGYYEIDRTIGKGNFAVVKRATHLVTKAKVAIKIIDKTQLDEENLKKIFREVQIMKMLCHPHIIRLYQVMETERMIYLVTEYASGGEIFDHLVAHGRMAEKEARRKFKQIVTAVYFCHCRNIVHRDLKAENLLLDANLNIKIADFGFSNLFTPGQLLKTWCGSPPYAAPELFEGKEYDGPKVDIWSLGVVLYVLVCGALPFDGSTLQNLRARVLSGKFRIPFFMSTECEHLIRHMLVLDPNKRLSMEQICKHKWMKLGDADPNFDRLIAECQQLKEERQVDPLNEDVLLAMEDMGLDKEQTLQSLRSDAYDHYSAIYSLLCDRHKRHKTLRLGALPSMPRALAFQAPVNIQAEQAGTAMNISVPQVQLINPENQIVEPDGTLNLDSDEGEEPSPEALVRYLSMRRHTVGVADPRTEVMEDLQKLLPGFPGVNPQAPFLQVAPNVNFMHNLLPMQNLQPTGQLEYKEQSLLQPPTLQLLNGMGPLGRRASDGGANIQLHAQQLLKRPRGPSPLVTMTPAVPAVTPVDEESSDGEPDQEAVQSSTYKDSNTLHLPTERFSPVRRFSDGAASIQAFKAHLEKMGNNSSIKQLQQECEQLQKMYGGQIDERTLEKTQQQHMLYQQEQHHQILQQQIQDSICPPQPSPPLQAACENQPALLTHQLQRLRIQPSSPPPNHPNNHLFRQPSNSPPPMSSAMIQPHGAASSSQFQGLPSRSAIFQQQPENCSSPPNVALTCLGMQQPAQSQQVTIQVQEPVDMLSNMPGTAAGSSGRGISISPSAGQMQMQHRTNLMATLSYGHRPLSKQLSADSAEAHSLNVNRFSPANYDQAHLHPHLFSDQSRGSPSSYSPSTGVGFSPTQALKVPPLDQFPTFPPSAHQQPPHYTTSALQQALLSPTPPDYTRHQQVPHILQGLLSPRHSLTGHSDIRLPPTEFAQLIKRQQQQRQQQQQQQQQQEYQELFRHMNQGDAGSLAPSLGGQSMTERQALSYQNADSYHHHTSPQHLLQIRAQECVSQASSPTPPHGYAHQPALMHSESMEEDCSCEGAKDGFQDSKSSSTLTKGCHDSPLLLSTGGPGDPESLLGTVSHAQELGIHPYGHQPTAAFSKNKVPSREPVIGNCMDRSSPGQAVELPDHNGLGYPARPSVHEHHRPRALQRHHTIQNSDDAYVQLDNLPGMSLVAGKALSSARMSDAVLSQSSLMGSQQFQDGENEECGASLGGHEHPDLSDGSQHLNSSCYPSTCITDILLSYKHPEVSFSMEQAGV

Chain of off-target kinases (Homo sapiens, UniProt O75716) (O75716 whole entry): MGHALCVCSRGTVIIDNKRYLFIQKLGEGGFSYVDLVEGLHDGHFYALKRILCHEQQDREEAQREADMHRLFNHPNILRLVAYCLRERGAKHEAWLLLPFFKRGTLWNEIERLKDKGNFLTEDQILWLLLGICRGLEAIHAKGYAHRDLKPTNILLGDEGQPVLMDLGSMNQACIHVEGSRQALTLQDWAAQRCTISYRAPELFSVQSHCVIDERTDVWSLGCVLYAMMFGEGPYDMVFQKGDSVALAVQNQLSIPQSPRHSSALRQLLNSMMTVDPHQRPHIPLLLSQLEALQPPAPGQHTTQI
Chain of off-target kinases (Homo sapiens, UniProt P00533, DEL746-750) (P00533 with tags, fused parts or gaps DEL746-750): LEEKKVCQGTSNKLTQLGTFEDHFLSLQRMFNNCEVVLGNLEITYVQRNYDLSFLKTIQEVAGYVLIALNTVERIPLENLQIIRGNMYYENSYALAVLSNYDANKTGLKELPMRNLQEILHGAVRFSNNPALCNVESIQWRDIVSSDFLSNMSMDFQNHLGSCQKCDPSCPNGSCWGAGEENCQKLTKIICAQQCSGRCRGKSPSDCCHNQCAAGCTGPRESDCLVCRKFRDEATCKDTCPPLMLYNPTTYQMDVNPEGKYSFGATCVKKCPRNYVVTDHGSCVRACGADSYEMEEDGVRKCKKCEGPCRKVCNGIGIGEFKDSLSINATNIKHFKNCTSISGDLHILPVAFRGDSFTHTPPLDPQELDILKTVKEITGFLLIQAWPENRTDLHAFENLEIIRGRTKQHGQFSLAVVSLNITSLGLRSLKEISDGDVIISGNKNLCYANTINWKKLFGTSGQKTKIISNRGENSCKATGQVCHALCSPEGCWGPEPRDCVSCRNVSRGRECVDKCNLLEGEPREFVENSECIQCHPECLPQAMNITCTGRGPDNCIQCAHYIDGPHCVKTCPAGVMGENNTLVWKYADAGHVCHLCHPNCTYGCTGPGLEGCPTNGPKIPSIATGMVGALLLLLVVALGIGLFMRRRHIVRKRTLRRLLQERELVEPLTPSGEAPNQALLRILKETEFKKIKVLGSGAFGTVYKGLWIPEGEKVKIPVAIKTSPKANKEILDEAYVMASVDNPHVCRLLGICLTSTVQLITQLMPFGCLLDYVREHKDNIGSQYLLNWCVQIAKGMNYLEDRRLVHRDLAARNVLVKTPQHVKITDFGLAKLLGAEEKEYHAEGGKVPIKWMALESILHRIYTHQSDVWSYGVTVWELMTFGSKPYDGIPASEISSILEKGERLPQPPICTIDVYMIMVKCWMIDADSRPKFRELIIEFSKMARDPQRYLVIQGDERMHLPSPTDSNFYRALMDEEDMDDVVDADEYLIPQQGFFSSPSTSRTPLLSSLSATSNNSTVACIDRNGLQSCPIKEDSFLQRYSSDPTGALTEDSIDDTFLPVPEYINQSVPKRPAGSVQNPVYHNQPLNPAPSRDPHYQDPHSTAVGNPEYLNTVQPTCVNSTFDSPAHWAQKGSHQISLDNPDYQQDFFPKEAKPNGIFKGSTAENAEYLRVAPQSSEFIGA

On to `N#Cc1cc(-c2ncnc(Nc3ccc(N4CCN(C5COC5)CC4)cc3)n2)ccc1OC1CCOCC1` [Compound 1, 5-(4-((4-(4-(oxetan-3-yl)piperazin-1-yl)phenyl)amino)-1,3,5-triazin-2-yl)-2-((tetrahydro-2H-pyran-4-yl)oxy)benzonitrile], for which the inhibition is 95% on off-target kinases [1] (read-out: % Inhibition 1); 93% at off-target kinases [1] (read-out: % Inhibition 2); 94% at off-target kinases [1] (read-out: % Inhibition Avg); 14% on off-target kinases [2]; 0% on off-target kinases [3] (read-out: % Inhibition 1); -5% on off-target kinases [3] (read-out: % Inhibition 2). For the same compound, the inhibition on off-target kinases [3] (read-out: % Inhibition Avg) is -2%; on off-target kinases [4] (read-out: % Inhibition 1), 29%; at off-target kinases [4] (read-out: % Inhibition 2) it was 30%; on off-target kinases [4] (read-out: % Inhibition Avg), 30%; at off-target kinases [5] (STK4 (MST1), ZLYTE, ATP Km app, read-out: % Inhibition Avg), 0%; at off-target kinases [5] (read-out: % Inhibition 1), 0%. The inhibition at off-target kinases [5] (read-out: % Inhibition 2) came out at 0%; at off-target kinases [6] (read-out: % Inhibition 1), 8%; on off-target kinases [6] (read-out: % Inhibition 2), 4%; on off-target kinases [6] (read-out: % Inhibition Avg) it was 6%; on off-target kinases [7] (read-out: % Inhibition 1) it was 7%; at off-target kinases [7] (read-out: % Inhibition 2), 9%. The inhibition was found to be 8% at off-target kinases [7] (read-out: % Inhibition Avg), 98% on off-target kinases [8] (read-out: % Inhibition 1), 95% at off-target kinases [8] (read-out: % Inhibition 2) and 96% at off-target kinases [8] (read-out: % Inhibition Avg).
